Test [1] concerns T-24 bladder cancer cells. Description: Cell uptake of doxorubicin and mitomycin C prodrug conjugate. It is filed as cell-based, human. The note with it: T-24 cells, 3 hours of incubation; doxorubicin 6.5 μmoles/L (3.7 μg/mL), MLP 5 μmoles/L (5.7 μg/mL).
Procedure: In brief, the liposomal compositions or free doxorubicin were incubated for 3 hours with the cell lines at a doxorubicin concentration of 6.5 μmoles/L (3.7 μg/mL) and final mitomycin C lipid prodrug conjugate concentration of 5 μmoles/L (5.7 μg/mL).
Cell uptake studies were done as follows. 1×10^6 cells were incubated for 3 hours with the various test agents at a doxorubicin concentration of 6.5 μmoles/mL (3.7 μg/mL) and final mitomycin C lipid prodrug conjugate concentration of 5 μmoles/mL (5.7 μg/mL) and a phospholipid concentration similar to that of liposomes with entrapped doxorubicin (40 nanomoles/mL).
The test system of test [2] is IGrov-1 ovarian carcinoma cells. Description: In vitro cytotoxicity, methylene blue staining, 72 h. The note with it: IGrov-1 cells, 72 hours at 37° C. It is filed as cell-based, human. Here is the method: (§1) For comparison, liposomes with entrapped doxorubicin with ammonium sulfate gradient and a coating of polyethyleneglycol (PEG) (available under the tradename DOXIL®), liposomes with the mitomycin C prodrug conjugate incorporated into the lipid bilayer and a coating of PEG (sometimes referred to in the literature by the tradename PROMITIL®) were also evaluated in the cell lines, along with free doxorubicin and liposomes with encapsulated doxorubicin with ammonium alendronate gradient and a coating of PEG (U.S. 2014/0328899, incorporated by reference herein).
(§2) In the cytotoxicity assay, cells were seeded in 96-multiwell plates. After overnight incubation, the drugs or liposome compositions were added at various concentrations and cells were incubated further for a total exposure of 72 hrs. Cell growth was evaluated colorimetrically with methylene blue staining and growth rates and IC50 values were calculated as known in the literature.

Test [3] concerns N-87 gastric carcinoma cells. Described as above. It is filed as cell-based, human. The note with it: N-87 cells, 72 hours at 37° C. The procedure: as §1, §2
Test [4] deals with T24 bladder cancer carcinoma cells. The test is described as above. The test is classed as cell-based, human. The note with it: 72 hours at 37° C. Here is the method: as §1, §2
A further test has as its system NCI/ADR cells. The description is as above. The note with it: 72 hours at 37° C. The test is classed as cell-based. The procedure:
as §1, §2

Test [5] has as its system multidrug resistant M109R lung carcinoma cells. The test is described as above. The test is classed as cell-based. The note with it: 72 hours at 37° C. Here is the method: as §1, §2
A further test has as its system 4T1 breast tumor. Nature of the test: Antitumor activity in mouse 4T1 breast tumor model. The test is classed as in vivo. The note with it: BALB/c mice, single i.v. dose eight days after inoculation. Here is the method: BALB/c mice were inoculated intravenously with 100,000 cells 4T1 breast cancer cells to produce tumors. Three were approximately eight tumor-bearing mice in each of the treatment groups.
Eight days after inoculation, the test formulations were administered intravenously.

[6] abbreviates: as doxorubicin concentration, read-out: IC50 of doxorubicin.
Where [7] appears, read: as mitomycin C concentration, read-out: IC50 of Mitomycin C.

Where two headings read alike, the source gives them in different places.

On to `COc1cccc2c1C(=O)c1c(O)c3c(c(O)c1C2=O)C[C@@](O)(C(=O)CO)C[C@@H]3O[C@H]1C[C@H](N)[C@H](O)[C@H](C)O1` [free doxorubicin, doxorubicin], for which the “Doxorubicin Concentration” value in test [1] worked out at 739 ng/10^6 cells. The IC50 in test [2] (setting [6]) worked out at 1100 nM; in test [3] (setting [6]), 190 nM; in test [4] (as doxorubicin concentration, read-out: C50 of doxorubicin), 100 nM; in the test on NCI/ADR cells (setting [6]), 2500 nM; in test [5] (setting [6]), 8700 nM. Also, the “time after treatment at which tumor approached 5.5 mm” value in the test with 4T1 breast tumor was determined as 10 days. The “tumor growth (FIG. 15), in words” value in the test on 4T1 breast tumor (doses in Example 7) was “continued and rapid tumor growth”.

In the case of `CO[C@@]12[C@H](COC(N)=O)C3=C(C(=O)C(C)=C(N)C3=O)N1C[C@@H]1N[C@@H]12` [free mitomycin C, mitomycin C], the IC50 in test [2] (setting [7]) came out at 700 nM; in test [3] (setting [7]) it was 180 nM; in test [4] (setting [7]), 50 nM; with NCI/ADR cells (setting [7]) it was 400 nM; in test [5] (setting [7]), 300 nM.

Source of the values: patent US10617672B2, “Liposome composition co-encapsulating doxorubicin and a prodrug of mitomycin C” (LIPOMEDIX PHARMACEUTICALS LTD., priority 2015, dated 2020).
